This note sets out measurements from patent US7585859B2, “PDE4B inhibitors and uses therefor” (Plexxikon, Inc., priority 2004, dated 2009).

The structures appear in SMILES notation. Like-named read-outs stand apart in the source and are kept apart here. Bounds are passed on as bounds.

In test [1] the target is T1, PDE4B: The catalytic domain of human PDE4B from S152-S528 (Homo sapiens, UniProt Q07343).
T1 construct: His6 (N); thrombin cleavage site (N); made in house; host or cells: E. coli
Briefly: PDE4 IC50 determination by Scintillation Proximity Assay, PDE4B. Type of test: biochemical. In a few lines:
(§1)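 Hydrolysis of [^3H]cAMP measured by SPA with yttrium silicate beads, which bind the [^3H]AMP product strongly and cAMP weakly. Enzyme at 80 ng/ml for PDE4B, 4 ng/ml for PDE4D; 30 min at 30°.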
For orientation: In a scintillation proximity assay essentially only radioactivity close to the scintillant gives light.

The target of test [2] is T2, PDE4D (Homo sapiens, UniProt Q08499).
T2 construct: PDE4D: The catalytic domain of human PDE4B from S3 16-V692; His6 (N); thrombin cleavage site (N); made in house; host or cells: E. coli
The test can be described thus: PDE4 IC50 determination by Scintillation Proximity Assay, PDE4D. Type of test: biochemical. The gist of the method:
as §1

For test [3], the target named is T3, full-length human PDE4B2 isozyme (Homo sapiens, UniProt Q07343).
T3 construct: The full-length human PDE4B2 isozyme; His6 (N); TEV cleavage site (N); made in house; host or cells: baculovirus infected insect cells (unpurified lysate)
The test can be described thus: PDE4 IC50 determination by Scintillation Proximity Assay, PDE4B2. The class given is biochemical. As to conditions: Table 1B, Formula I compounds; read-out: IC50 PDE4B2. In a few lines:
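Unpurified His6-TEV-tagged full-length human PDE4B2 from baculovirus-infected insect cell lysate (2.5 μl of 50% glycerol stock/ml) hydrolysed [3H]cAMP in 50 mM Tris pH 7.5, 8.3 mM MgCl, 1.7 mM EGTA, 0.01% BSA for 30 min at 30°. Stopped with SPA beads in 18 mM ZnSO4; [3H]AMP scintillation counted, IC50 by non-linear regression.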

In test [4] the test system is TNFα levels in serum of LPS-challenged rats. The test can be described thus: Rat inhibition studies: serum TNFα after iv LPS challenge. The class given is in vivo. The note with it: read-out: % inhibition r TNFα. On the procedure:
All studies were done with male rats CD (SD) IGS BR (Crl) (Charles River, France), which were grouped in to 5 animal groups.
At the end of the acclimatization period, the non-fasted rats were weighed, individually identified on the tail with a permanent marker and administered by oral (po) or interperitoneal (ip) route with either vehicle, reference or test compound in a volume of 10 mL/kg adapted to the body weight. The animals were gathered in groups of 5 animals in a polystyrene labeled cage with sawdust covered floors. 2-hours after vehicle, reference or test substance administration, rats received an intravenous (iv) injection of 0.1 mg/kg LPS in a volume of 1 mL/kg of body weight. 2 h after LPS challenge (or as indicated in Tables 3B and 4B), blood samples were collected into tubes without anticoagulant by retro-orbital puncture under gas (isoflurane) anesthesia. Samples were allowed to clot at room temperature for 5 to 10 min then put on ice until there were prepared by centrifugation (6000×g for 3 min at 4° C.) and stored at −20° C. until use. TNFα levels were measured in serum samples in duplicate by ELISA technique according to the manufacturer's procedure (Rat TNFα kit Quantikine M (RTA00, R&D System, France)). Data are reported as percent decrease in observed TNFα levels versus TNFa levels observed for vehicle dosed animal groups.

Test [5] addresses T4, full-length human PDE4D5 isozyme (Homo sapiens, UniProt Q08499).
T4 construct: The full-length human PDE4D5 isozyme; His6 (N); TEV cleavage site (N); made in house; host or cells: baculovirus infected insect cells (unpurified lysate)
Briefly: PDE4 IC50 determination by Scintillation Proximity Assay, PDE4D5. Type of test: biochemical. The note with it: Table 1B, Formula I compounds; read-out: IC50 PDE4D5. The gist of the method:
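Unpurified His6-tagged full-length human PDE4D5 from baculovirus-infected insect cell lysate, 0.083 μl glycerol stock/ml, hydrolysed [3H]cAMP in Tris pH 7.5/MgCl/EGTA buffer, 30 min at 30°. ZnSO4/SPA beads stop; [3H]AMP counted. Controls: DMSO and roflumilast; 11-point duplicate curves, nonlinear-regression IC50.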

Setting [6] is: Table 1B, Formula I compounds, read-out: IC50 PDE4B.
[7] abbreviates: Table 1B, Formula I compounds, read-out: IC50 PDE4D.
[8] abbreviates: po, 2 h, rat in vivo inhibition assay, 100 mg/kg po, 2 hr challenge delay.
Where [9] appears, read: po, 1 h, rat, 100 mg/kg po, 1 hr challenge delay.

T1 sequence (Q07343 with tags, fused parts or gaps): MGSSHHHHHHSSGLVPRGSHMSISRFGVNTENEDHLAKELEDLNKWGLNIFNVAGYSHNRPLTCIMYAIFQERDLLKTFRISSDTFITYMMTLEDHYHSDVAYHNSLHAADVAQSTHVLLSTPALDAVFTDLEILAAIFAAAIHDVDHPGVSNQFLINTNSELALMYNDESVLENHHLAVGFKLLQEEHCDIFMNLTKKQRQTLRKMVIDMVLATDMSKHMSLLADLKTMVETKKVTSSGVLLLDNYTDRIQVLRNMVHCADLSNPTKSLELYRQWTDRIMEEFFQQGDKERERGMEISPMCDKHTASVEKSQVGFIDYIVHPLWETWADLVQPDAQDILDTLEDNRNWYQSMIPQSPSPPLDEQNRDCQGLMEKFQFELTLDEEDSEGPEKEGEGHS
T3 sequence (Q07343 1-564 isoform Q07343-2): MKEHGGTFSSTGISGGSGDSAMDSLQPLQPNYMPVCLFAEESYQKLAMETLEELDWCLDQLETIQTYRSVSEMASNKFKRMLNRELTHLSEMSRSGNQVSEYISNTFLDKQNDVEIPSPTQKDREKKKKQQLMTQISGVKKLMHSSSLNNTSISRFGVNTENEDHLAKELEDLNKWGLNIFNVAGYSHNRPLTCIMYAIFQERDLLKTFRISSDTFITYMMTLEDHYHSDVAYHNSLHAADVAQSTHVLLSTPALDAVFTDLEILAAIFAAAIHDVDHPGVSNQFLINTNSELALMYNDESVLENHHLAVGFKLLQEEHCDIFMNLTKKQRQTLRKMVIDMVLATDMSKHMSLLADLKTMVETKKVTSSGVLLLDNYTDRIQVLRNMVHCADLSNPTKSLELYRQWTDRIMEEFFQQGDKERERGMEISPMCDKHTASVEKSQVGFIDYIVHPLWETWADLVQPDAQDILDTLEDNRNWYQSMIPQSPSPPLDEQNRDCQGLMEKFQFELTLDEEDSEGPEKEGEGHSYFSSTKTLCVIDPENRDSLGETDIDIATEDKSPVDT
T2 sequence (Q08499 380-756): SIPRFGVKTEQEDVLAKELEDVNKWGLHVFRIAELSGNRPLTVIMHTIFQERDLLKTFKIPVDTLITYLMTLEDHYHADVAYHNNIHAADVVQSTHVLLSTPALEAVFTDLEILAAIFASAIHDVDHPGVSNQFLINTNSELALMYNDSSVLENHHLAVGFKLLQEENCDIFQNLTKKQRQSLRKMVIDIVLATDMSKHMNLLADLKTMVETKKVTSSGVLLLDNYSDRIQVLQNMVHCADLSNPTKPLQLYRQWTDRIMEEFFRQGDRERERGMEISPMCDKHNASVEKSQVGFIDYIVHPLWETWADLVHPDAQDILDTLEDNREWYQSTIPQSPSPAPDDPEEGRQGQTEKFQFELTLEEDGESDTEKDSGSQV
T4 sequence (Q08499 1-745 isoform Q08499-6): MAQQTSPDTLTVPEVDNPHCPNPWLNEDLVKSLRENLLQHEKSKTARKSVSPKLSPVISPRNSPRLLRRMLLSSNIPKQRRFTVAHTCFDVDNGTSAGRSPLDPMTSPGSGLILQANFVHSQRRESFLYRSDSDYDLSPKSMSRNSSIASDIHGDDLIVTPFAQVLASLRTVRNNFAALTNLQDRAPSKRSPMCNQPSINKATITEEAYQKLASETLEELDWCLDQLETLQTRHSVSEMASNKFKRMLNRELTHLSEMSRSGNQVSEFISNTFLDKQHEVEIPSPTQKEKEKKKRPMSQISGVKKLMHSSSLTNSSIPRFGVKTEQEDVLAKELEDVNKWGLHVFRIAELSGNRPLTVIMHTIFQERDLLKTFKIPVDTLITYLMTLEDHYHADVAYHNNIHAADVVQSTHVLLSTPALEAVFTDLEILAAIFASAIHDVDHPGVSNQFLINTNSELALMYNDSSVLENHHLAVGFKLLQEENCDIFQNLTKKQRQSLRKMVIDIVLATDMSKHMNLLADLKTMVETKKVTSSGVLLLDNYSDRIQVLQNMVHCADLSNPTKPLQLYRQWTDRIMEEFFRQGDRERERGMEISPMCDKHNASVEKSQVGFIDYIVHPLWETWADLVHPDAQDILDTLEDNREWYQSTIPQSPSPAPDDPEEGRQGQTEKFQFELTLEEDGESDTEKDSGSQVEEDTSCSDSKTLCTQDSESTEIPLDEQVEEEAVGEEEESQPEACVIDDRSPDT

As to `Cc1ccc(C(=O)c2sc(Nc3ccccc3)c(C#N)c2N)cc1` [Compound 1-29, 4-Amino-5-(4-methyl-benzoyl)-2-phenylamino-thiophene-3-carbonitrile], the IC50 in test [1] (setting [6]), in test [2] (setting [7]), in test [3] and in test [5] was under 10 µM each time. For the same molecule, in test [4] (ip, 1 h, rat, 100 mg/kg, ip, 1 hr challenge delay), the inhibition in vivo at 100 mg/kg was over 20%.
Regarding `COc1ccccc1Nc1sc(C(=O)c2ccccc2)c(N)c1C#N` [Compound 1-30, 4-Amino-5-benzoyl-2-(2-methoxy-phenylamino)-thiophene-3-carbonitrile], the IC50 in test [1] (setting [6]), in test [2] (setting [7]), in test [3] and in test [5] was under 10 µM in each case. Besides, in test [4] (setting [8]), the inhibition in vivo at 100 mg/kg was over 20%.
With `COc1ccc(Nc2sc(C(=O)c3ccccc3)c(N)c2C#N)cc1` [Compound 1-32, 4-Amino-5-benzoyl-2-(4-methoxy-phenylamino)-thiophene-3-carbonitrile], the IC50 in test [1] (setting [6]), in test [2] (setting [7]), in test [3] and in test [5] was under 10 µM each time. In addition, the inhibition in vivo at 100 mg/kg in test [4] (setting [8]) was under 20%.
For the molecule `COc1cccc(C(=O)c2sc(Nc3ccccc3)c(C#N)c2N)c1` [Compound 1-33, 4-Amino-5-(3-methoxy-benzoyl)-2-phenylamino-thiophene-3-carbonitrile], the IC50 in test [1] (setting [6]), in test [2] (setting [7]), in test [3] and in test [5] was under 10 µM each time. The inhibition in vivo at 100 mg/kg in test [4] (setting [8]) was over 20%.
As for `N#Cc1c(Nc2ccccc2)sc(C(=O)c2ccc(-c3ccccc3)cc2)c1N` [Compound 1-34, 4-Amino-5-(biphenyl-4-carbonyl)-2-phenylamino-thiophene-3-carbontrile], the IC50 in test [1] (setting [6]), in test [2] (setting [7]), in test [3] and in test [5] was under 10 µM each time. In addition, the inhibition in vivo at 100 mg/kg in test [4] (setting [8]) is over 20%.
As to `N#Cc1c(Nc2ccccc2)sc(C(=O)c2ccc3ccccc3c2)c1N` [Compound 1-35, 4-Amino-5-(naphthalene-2-carbonyl)-2-phenylamino-thiophene-3-carbonitrile], the IC50 in test [1] (setting [6]), in test [2] (setting [7]), in test [3] and in test [5] was under 10 µM each time. Also, the inhibition in vivo at 100 mg/kg in test [4] (setting [8]) was under 20%.
Take `COc1ccc(C(=O)c2sc(Nc3ccc(Cl)cc3)c(C#N)c2N)cc1` [Compound 1-36, 4-Amino-2-(4-chloro-phenylamino)-5-(4-methoxy-benzoyl)-thiophene-3-carbonitrile]: the IC50 in test [1] (setting [6]), in test [2] (setting [7]), in test [3] and in test [5] was under 10 µM in each case. The inhibition in vivo at 100 mg/kg in test [4] (setting [9]) was under 20%.
As to `COc1ccc(C(=O)c2sc(Nc3ccc(F)cc3)c(C#N)c2N)cc1` [Compound 1-37, 4-Amino-2-(4-fluoro-phenylamino)-5-(4-methoxy-benzoyl)-thiophene-3-carbonitrile], the IC50 in test [1] (setting [6]), in test [2] (setting [7]), in test [3] and in test [5] was under 10 µM in each case. Moreover, the inhibition in vivo at 100 mg/kg in test [4] (setting [9]) is under 20%.
On to `N#Cc1c(NC2CCCC2)sc(C(=O)c2cc(-c3ccccc3)no2)c1N` [Compound 1-143, 4-Amino-2-cyclopentylamino-5-(3-phenyl-isoxazole-5-carbonyl)-thiophene-3-carbonitrile], for which the IC50 in test [1] (setting [6]), in test [2] (setting [7]), in test [3] and in test [5] was under 10 µM each time. Besides, the inhibition in vivo at 50 mg in test [4] (2 h, rat, 50 mg, ip, 2 hr challenge delay) is over 20%. Moreover, the inhibition in vivo at 80 mg in test [4] (2 h, rat, 80 mg, po, 2 hr challenge delay) was under 20%. Further, the inhibition in vivo at 100 mg/kg in test [4] (ip, 2 h, rat, 100 mg/kg, ip, 2 hr challenge delay) was over 20%.
As for `N#Cc1c(Nc2ccc(Oc3ccccc3)cc2)sc(C(=O)c2ccccc2Cl)c1N` [Compound 1-161, 4-Amino-5-(2-chloro-benzoyl)-2-(4-phenoxy-phenylamino)-thiophene-3-carbonitrile], the IC50 is under 10 µM in test [1] (setting [6]), over 10 µM in test [2] (setting [7]), under 10 µM in test [3] and under 10 µM in test [5]. Also, the inhibition in vivo at 90 mg in test [4] (2 h, rat, ip, 2 hr challenge delay) was over 20%; in test [4] (2 h, rat, po, 2 hr challenge delay), under 20%.
Take `CSc1cccc(Nc2sc(C(=O)c3ccccc3)c(N)c2C#N)c1` [Compound 1-169, 4-Amino-5-benzoyl-2-(3-methylsulfanyl-phenylamino)-thiophene-3-carbonitrile]: the IC50 in test [1] (setting [6]), in test [2] (setting [7]), in test [3] and in test [5] was under 10 µM in each case. Also, the inhibition in vivo at 70 mg in test [4] (2 h, rat, 70 mg, po, 2 hr challenge delay) was over 20%.
For `N#Cc1c(NC2CCCC2)sc(C(=O)c2ccccc2)c1N` [Compound 1-171, 4-Amino-5-benzoyl-2-cyclopentylamino-thiophene-3-carbonitrile], the IC50 in test [1] (setting [6]), in test [2] (setting [7]), in test [3] and in test [5] was under 10 µM each time. Also, the inhibition in vivo at 100 mg/kg in test [4] (setting [8]) is under 20%.
In the case of `N#Cc1c(NC2CCCC2)sc(C(=O)c2cc(-c3ccc(Cl)cc3)no2)c1N` [Compound 1-173, 4-Amino-5-[3-(4-chloro-phenyl)-isoxazole-5-carbonyl]-2-cyclopentylamino-thiophene-3-carbonitrile], the IC50 in test [1] (setting [6]) was under 10 µM; in test [2] (setting [7]), over 10 µM; in test [3], under 10 µM; in test [5] it was over 10 µM. Also, the inhibition in vivo at 100 mg/kg in test [4] (setting [8]) is under 20%.
For `CSc1cccc(Nc2sc(C(=O)c3cc(-c4ccccc4)no3)c(N)c2C#N)c1` [Compound 1-181, 4-Amino-2-(3-methylsulfanyl-phenylamino)-5-(3-phenyl-isoxazole-5-carbonyl)-thiophene-3-carbonitrile], the IC50 in test [1] (setting [6]), in test [2] (setting [7]), in test [3] and in test [5] was under 10 µM throughout. The inhibition in vivo at 100 mg/kg in test [4] (setting [8]) is under 20%.
`N#Cc1c(NCc2ccccc2)sc(C(=O)c2cc(-c3ccccc3)no2)c1N` [Compound 1-193, 4-Amino-2-benzylamino-5-(3-phenyl-isoxazole-5-carbonyl)-thiophene-3-carbonitrile]: the IC50 in test [1] (setting [6]) was under 10 µM; in test [3] it was over 10 µM; in test [5] it was over 10 µM. In addition, the inhibition in vivo at 100 mg/kg in test [4] (setting [8]) is under 20%.
As to `Nc1nc(Nc2c(Cl)cccc2Cl)sc1C(=O)C1CCCC1` [Compound 2-93, [4-Amino-2-(2,6-dichloro-phenylamino)-thiazol-5-yl]-cyclopentyl-methanone], the IC50 in test [1] (second part of Table 2B (2-23 to 2-103), column 3, column is PDE4B in first part, read-out: IC 50 vs. indicated assay h TNFα) is under 10 µM; in test [2] (second part of Table 2B (2-23 to 2-103), column 5, column is PDE4D in first part, read-out: IC 50 vs. indicated assay h TNFα) it was under 10 µM. The inhibition in vivo at 100 mg/kg in test [4] (po, 1 h, rat in vivo, 100 mg/kg po, 1 hr) was under 20%.
